The compounds below were run against PIK3CA (human) (UniProt P42336) (assay: Assessment of PIK3CA Kinase Activity).
PIK3CA (human), sequence (P42336 whole entry, looked up): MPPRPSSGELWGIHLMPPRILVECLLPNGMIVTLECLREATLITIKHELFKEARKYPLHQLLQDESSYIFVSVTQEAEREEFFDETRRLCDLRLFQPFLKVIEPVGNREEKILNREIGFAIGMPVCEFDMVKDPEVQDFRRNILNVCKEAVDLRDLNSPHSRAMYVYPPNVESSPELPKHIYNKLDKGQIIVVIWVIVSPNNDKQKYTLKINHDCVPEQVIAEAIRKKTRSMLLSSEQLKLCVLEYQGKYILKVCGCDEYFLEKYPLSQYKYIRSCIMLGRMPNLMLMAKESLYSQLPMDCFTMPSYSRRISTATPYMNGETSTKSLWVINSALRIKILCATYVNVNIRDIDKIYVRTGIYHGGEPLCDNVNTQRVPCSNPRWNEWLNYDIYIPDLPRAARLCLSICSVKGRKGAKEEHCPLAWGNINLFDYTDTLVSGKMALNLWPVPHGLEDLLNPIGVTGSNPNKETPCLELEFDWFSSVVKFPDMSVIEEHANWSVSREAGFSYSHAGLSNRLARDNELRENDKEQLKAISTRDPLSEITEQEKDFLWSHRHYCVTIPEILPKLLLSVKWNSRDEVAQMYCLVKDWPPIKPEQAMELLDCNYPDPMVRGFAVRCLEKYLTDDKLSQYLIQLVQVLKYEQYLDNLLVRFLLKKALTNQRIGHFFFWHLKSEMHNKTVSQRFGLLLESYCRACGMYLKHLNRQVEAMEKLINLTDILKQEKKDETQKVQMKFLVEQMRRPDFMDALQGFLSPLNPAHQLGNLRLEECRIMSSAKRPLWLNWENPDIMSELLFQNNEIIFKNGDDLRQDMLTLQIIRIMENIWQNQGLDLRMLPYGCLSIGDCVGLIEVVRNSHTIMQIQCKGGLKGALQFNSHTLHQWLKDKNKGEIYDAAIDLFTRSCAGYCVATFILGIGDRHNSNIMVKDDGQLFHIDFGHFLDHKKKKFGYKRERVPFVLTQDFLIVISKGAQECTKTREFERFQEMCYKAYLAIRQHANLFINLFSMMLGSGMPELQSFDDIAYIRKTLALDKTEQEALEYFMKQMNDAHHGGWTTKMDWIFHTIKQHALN

**Q.** With `CCn1ccc(-c2ccc3c(c2)OCCc2sc(-c4ncnn4C(C)C)nc2-3)cc1=O` as the compound, how does the IC50 read?
**A.** < 1000 nM

**Q.** How did the IC50 turn out when `N#CC1CCN(C(=O)c2nc3c(s2)CCOc2cc(-c4cn[nH]c4)ccc2-3)CC1` was run?
**A.** < 1000 nM

**Q.** `Cn1cc(-c2ccc3c(n2)-c2sc(-c4ncnn4-c4ccc(F)cc4F)cc2CCO3)cn1` was tested. Which IC50 did it give?
**A.** < 1000 nM

**Q.** Which IC50 does the source give for `CC(C)(O)CCc1ccc2c(n1)-c1sc(-c3ncnn3-c3ccc(F)cc3F)cc1CCO2` here?
**A.** < 1000 nM

**Q.** `CN(C[C@H](O)c1ccccc1)C(=O)c1nc2c(s1)CCOc1cc(-c3cn[nH]c3)ccc1-2` was tested. Which IC50 did it give?
**A.** < 1000 nM

**Q.** With `CN(C)c1ccc(-c2ccc3c(n2)-c2sc(-c4ncnn4-c4ccc(F)cc4F)cc2CCO3)cn1` as the compound, how does the IC50 read?
**A.** < 1000 nM

**Q.** How did the IC50 turn out when `CN1CCC(n2ncnc2-c2nc3c(s2)CCOc2cc(-c4cnn(CC(C)(C)O)c4)ccc2-3)CC1` was run?
**A.** < 1000 nM

**Q.** For `C[C@H](O)CNC(=O)c1ccc(Cl)c(N(C)C(=O)c2cc3c(s2)-c2ccc(C(=O)NCCS(C)(=O)=O)cc2OCC3)c1`, which IC50 is on record?
**A.** < 1000 nM

**Q.** Which IC50 does the source give for `Cc1cncc(-c2ccc3c(c2)-c2nc(-c4ncnn4C(C)C)sc2CCO3)c1` here?
**A.** < 1000 nM

**Q.** How did the IC50 turn out when `CN(CCO)C(=O)c1nc2c(s1)CCOc1cc(-c3cn[nH]c3)ccc1-2` was run?
**A.** < 1000 nM

**Q.** With `Cc1nc(-c2nc3c(s2)CCOc2cc(CNS(C)(=O)=O)ccc2-3)n(C(C)C)n1` as the compound, how does the IC50 read?
**A.** < 1000 nM

**Q.** With `CC(C)n1ncnc1-c1nc2c(s1)CCOc1ccc(-c3cccn(CC(=O)O)c3=O)cc1-2` as the compound, how does the IC50 read?
**A.** < 1000 nM

**Q.** How did the IC50 turn out when `Fc1ccc(-n2ncnc2-c2cc3c(s2)-c2nc(NCCc4ccccc4)ccc2OCC3)c(F)c1` was run?
**A.** < 1000 nM

**Q.** `O=C(c1nc2c(s1)CCOc1cc(-c3cn[nH]c3)ccc1-2)N1CCC(CO)CC1` was tested. Which IC50 did it give?
**A.** < 1000 nM

**Q.** `CN(CCO)c1ccc2c(n1)-c1sc(-c3ncnn3-c3ccc(F)cc3F)cc1CCO2` was tested. Which IC50 did it give?
**A.** < 1000 nM

**Q.** With `CC(C)n1ncnc1-c1nc2c(s1)CCOc1cc(C3CCN(S(C)(=O)=O)CC3)ccc1-2` as the compound, how does the IC50 read?
**A.** < 1000 nM

**Q.** `O=S1(=O)CCC(n2cc(-c3ccc4c(c3)OCCc3sc(-c5ncnn5CC(F)(F)F)nc3-4)cn2)C1` (stereo not given) was tested. Which IC50 did it give?
**A.** < 1000 nM

**Q.** Which IC50 does the source give for `COc1ccccc1C1CCN(C(=O)c2nc3c(s2)CCOc2cc(-c4cn[nH]c4)ccc2-3)CC1` here?
**A.** < 1000 nM

**Q.** `COC1CCN(C(=O)c2nc3c(s2)CCOc2cc(-c4cn[nH]c4)ccc2-3)CC1` was tested. Which IC50 did it give?
**A.** < 1000 nM

**Q.** `CC(C)n1ncnc1-c1nc2c(s1)CCOc1cc(C3CCN(CC(N)=O)CC3)ccc1-2` was tested. Which IC50 did it give?
**A.** < 1000 nM

**Q.** For `CC(C)(O)Cn1cc(-c2ccc3c(c2)OCCc2sc(NC(C)(C)CO)nc2-3)cn1`, which IC50 is on record?
**A.** < 1000 nM

**Q.** With `CC(C)n1ncnc1-c1nc2c(s1)CCOc1cc(CN3CCC[C@H]3C(N)=O)ccc1-2` as the compound, how does the IC50 read?
**A.** < 1000 nM

**Q.** How did the IC50 turn out when `Cc1cnc(F)c(-c2ccc3c(c2)-c2nc(-c4ncnn4C(C)C)sc2CCO3)c1` was run?
**A.** < 1000 nM

**Q.** `CC(C)n1ncnc1-c1nc2c(s1)CCOc1cc(C3CN(C(C)(C)CO)C3)ccc1-2` was tested. Which IC50 did it give?
**A.** < 1000 nM

**Q.** How did the IC50 turn out when `C[C@@H]1CCCN1C(=O)c1nc2c(s1)CCOc1cc(-c3cn[nH]c3)ccc1-2` was run?
**A.** < 1000 nM

**Q.** With `COc1ccc(-c2ccc3c(n2)-c2sc(-c4ncnn4-c4ccc(F)cc4F)cc2CCO3)cn1` as the compound, how does the IC50 read?
**A.** < 1000 nM

**Q.** `CN1CCN(C(=O)C2CCN(C(=O)c3nc4c(s3)CCOc3cc(-c5cn[nH]c5)ccc3-4)CC2)CC1` was tested. Which IC50 did it give?
**A.** < 1000 nM

**Q.** With `CC(C)n1ncnc1-c1nc2c(s1)CCOc1cc(C3CN(C(=O)[C@@H](C)O)C3)ccc1-2` as the compound, how does the IC50 read?
**A.** < 1000 nM

**Q.** With `Cc1nc(-c2nc3c(s2)CCOc2cc(-c4cnn(C5CN(CC(C)(C)O)C5)c4)ccc2-3)n(C(C)C)n1` as the compound, how does the IC50 read?
**A.** < 1000 nM

**Q.** How did the IC50 turn out when `CC(C)n1ncnc1-c1nc2c(s1)CCOc1ccc(-c3cccnc3)cc1-2` was run?
**A.** < 1000 nM

**Q.** Which IC50 does the source give for `CC(C)(C(N)=O)n1cc(-c2ccc3c(c2)OCCc2sc(-c4ncnn4CC(F)(F)F)nc2-3)cn1` here?
**A.** < 1000 nM

**Q.** For `O=C(c1nc2c(s1)CCOc1cc(-c3cn[nH]c3)ccc1-2)N1CCC[C@@H](O)C1`, which IC50 is on record?
**A.** < 1000 nM

**Q.** Which IC50 does the source give for `Cc1noc(C)c1-c1ccc2c(c1)OCCc1sc(C(=O)N(CCO)C(C)C)nc1-2` here?
**A.** < 1000 nM

**Q.** For `CC(C)n1ncnc1-c1nc2c(s1)CCOc1cc(O[C@@H](C)C(N)=O)ccc1-2`, which IC50 is on record?
**A.** < 1000 nM

**Q.** With `CN1CC(Nc2ccc3c(n2)-c2sc(-c4ncnn4-c4ccc(F)cc4F)cc2CCO3)C1` as the compound, how does the IC50 read?
**A.** < 1000 nM
